We go through 42 molecules from PubChem BioAssay AID623873 (Sanford-Burnham Center for Chemical Genomics, 2012).

For orientation: IC50 means the point on the concentration scale where inhibition reaches its midpoint.

Molecules are shown by their SMILES. Active and inactive are the calls of the source.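 Rule for the calls: active = IC50 at or below 20 µM in the dose response; inactive = the rest.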 Where only a bound is given, the exact number is not on record here.

For the assay, the system named is HL-1 cardiomyocytes, 2-deoxyglucose injury, ATP luminescence, 2 h. The assay can be described thus: protection of HL-1 cells from ATP loss, SAR follow-up, 2-deoxyglucose, ATP luminescence (AID 623873).
As for `COc1ccc2cc(C(=O)N3CCN(S(=O)(=O)c4ccc(C)cc4C)CC3)c(C)nc2c1`, the IC50 was > 79 µM (inactive).
As to `COc1cc(-c2cc(C(=O)Nc3cccc(C(C)=O)c3)c3ccccc3n2)cc(OC)c1OC`, the IC50 is 1.76 µM.
Then `COc1ccc(S(=O)(=O)N(Cc2cccnc2)Cc2cc3ccccc3[nH]c2=O)cc1`, with > 79 µM (inactive); and `NC(=O)c1nsc(C(=O)N(Cc2ccccc2)C(C(=O)NCc2ccc(F)cc2)c2ccc(O)cc2)c1N` (configuration not stated), with > 79 µM (inactive).
The figure for `Cc1ccc(S(=O)(=O)N2CCN(C(=O)c3cc(=O)[nH]c4ccccc34)CC2)cc1C` is > 79 µM (inactive); for `COc1ccc2c(c1OC)C(=O)N1c3ccccc3C(=O)N(c3ccc(F)cc3)C21` (configuration not stated) it is 3.4 µM.
With `Cc1ccc2cc(CN(C)S(=O)(=O)c3ccc(F)cc3)c(=O)[nH]c2c1`, the IC50 was > 79 µM (inactive).
Then `Cc1ccccc1N(C(=O)c1snc(C(N)=O)c1N)C(C(=O)NCc1ccc(F)cc1)c1ccc(O)cc1` (configuration not stated), with > 79 µM (inactive).
For the molecule `COc1cccc(NC(=O)C(Sc2nc3ccccc3c(=O)n2CC(C)C)c2ccccc2)c1` (configuration not stated), the IC50 is > 79 µM (inactive).
Then `O=C(C(=O)N1CCCCC1)c1c(-c2ccccc2)[nH]c2ccccc12`, with > 79 µM (inactive).
The figure for `COc1ccc2c(c1OC)C(=O)N1c3ccccc3C(=O)N(c3cccc(Br)c3)C21` (configuration not stated) is 0.684 µM; for `O=C1c2ccccc2N2C(=O)c3ccccc3[C@H]2N1c1ccccc1` it is > 79 µM (inactive); for `COc1ccc(-n2cc(-c3ccccc3)c3c(N4CCCC4)ncnc32)cc1` it is > 79 µM (inactive).
On to `COc1ccc(NC(=O)CN(C)C(=O)c2cc(-c3cccs3)nn2-c2ccccc2)cc1`, for which the IC50 was > 79 µM (inactive).
Then `COc1ccc(-c2cc(C(=O)N(C)C)c3ccccc3n2)cc1OC`, with 71.9 µM (inactive).
The figure for `COCCNC(=O)C(c1ccc(O)cc1)N(C(=O)c1snc(C(N)=O)c1N)c1ccccc1F` (configuration not stated) is > 79 µM (inactive).
The figure for `COc1ccc(-n2cc(-c3ccccc3)c3c(N4CCCCC4)ncnc32)cc1` is > 79 µM (inactive); for `COCCn1c(SC(C(=O)Nc2cc(C)ccc2C)c2ccccc2)nc2ccccc2c1=O` (configuration not stated) it is > 79 µM (inactive); for `COc1ccc2cc(C(=O)N3CCN(S(=O)(=O)c4cc(C)ccc4C)CC3)c(C)nc2c1` it is > 79 µM (inactive).
Turning to `CCN(CC)C(=O)C(=O)c1c(-c2ccccc2)[nH]c2ccccc12`, the IC50 was > 79 µM (inactive).
Then `COc1ccc2c(c1OC)C(=O)N1c3ccccc3C(=O)N(c3ccccc3C)C21` (configuration not stated), with 11.7 µM (inactive).
Then `COc1cccc(NC(=O)CN(C)C(=O)c2cc(-c3cccs3)nn2-c2ccccc2)c1`, with > 79 µM (inactive).
The figure for `COc1ccccc1N1C(=O)c2ccccc2N2C(=O)c3c(ccc(OC)c3OC)C12` (configuration not stated) is 29.4 µM (inactive).
For the molecule `CCCn1c(SC(C(=O)Nc2cccc(OC)c2)c2ccccc2)nc2ccccc2c1=O` (configuration not stated), the IC50 is > 79 µM (inactive).
Then `CCN(CC)S(=O)(=O)c1cc(C(=O)N2CCN(Cc3cccc4cccnc34)CC2)ccc1C`, with > 79 µM (inactive); and `Cc1ccc(NC(=O)CN(C)C(=O)c2cc(-c3cccs3)nn2-c2ccccc2)cc1`, with > 79 µM (inactive); and `COc1ccc(-c2cc(C(=O)NCc3ccco3)c3ccccc3n2)cc1OC`, with 20.8 µM (inactive).
Then `Cc1ccc(S(=O)(=O)N(Cc2cccnc2)Cc2cc3ccccc3[nH]c2=O)cc1`, with > 79 µM (inactive).
Consider `COc1ccc(-c2cc(C(=O)N(C)Cc3ccc(OC)c(OC)c3OC)c3ccccc3n2)cc1OC`, for which the IC50 was 2.9 µM.
The figure for `COc1ccc(-n2cc(-c3ccccc3)c3c(NCc4ccccc4)ncnc32)cc1` is > 79 µM (inactive); for `COc1ccc(N2C(=O)c3ccccc3N3C(=O)c4c(ccc(OC)c4OC)C23)cc1` (configuration not stated) it is 1.47 µM; for `CCCN(CC(=O)Nc1ccccc1OC)C(=O)c1cc(-c2cccs2)nn1-c1ccccc1` it is > 79 µM (inactive).
Then `COc1cccc(CN(C)C(=O)c2cc(-c3ccc(OC)c(OC)c3)nc3ccccc23)c1`, with 5.52 µM; and `Cc1ccc(-c2[nH]c3ccccc3c2C(=O)C(=O)N(C)C)cc1`, with > 79 µM (inactive).
The figure for `COc1ccc2c(=O)c(C(=O)N3CCN(S(=O)(=O)c4c(C)cc(C)cc4C)CC3)c[nH]c2c1` is > 79 µM (inactive).
Take `NC(=O)c1nsc(C(=O)N(c2cccc(F)c2)C(C(=O)NC2CCCC2)c2ccc(O)cc2)c1N` (configuration not stated): the IC50 is > 79 µM (inactive).
Then `CCN(CC(=O)Nc1ccc(OC)cc1)C(=O)c1cc(-c2cccs2)nn1-c1ccccc1`, with 2.27 µM.
Then `COc1ccc(-c2cc(C(=O)NCc3ccccc3)c3ccccc3n2)cc1OC`, with > 79 µM (inactive).
The figure for `O=c1[nH]c2ccccc2cc1CN(Cc1ccco1)S(=O)(=O)c1ccc(F)cc1` is > 79 µM (inactive).
Take `Cc1ccc(C)c(S(=O)(=O)N2CCN(C(=O)c3cc4cc(C)ccc4nc3C)CC2)c1`: the IC50 was > 79 µM (inactive).
With `COc1cccc(CN(C)C(=O)c2cc(-c3ccccc3)nc3ccc(C)cc23)c1OC`, the IC50 is > 79 µM (inactive).
Then `O=C(C(=O)N1CCCC1)c1c(-c2ccccc2)[nH]c2ccccc12`, with > 79 µM (inactive).
